Legend:
[1] = system: A53T a-syn expressing HEK293 cells; test: Cell Titer-Glo cell viability, A53T a-syn expressing cells; format: cell-based, human; conditions: for cell viability effect of peptides: A53T a-syn, Supp Figure 1A; for Cell viability: A53T, MG132 10 μM, 72 h; for Effect of MIM motif peptides on cell viability in A53T a-syn expressing cells: Supp Figure 1H
Procedure, shortened: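 HEK293 cells (1.5 × 10^4 per well, triplicate) were infected with peptide-expressing lentivirus at MOI 5 or transfected with plasmid for 72 h at 37 °C, 5% CO2. Viability was then measured with Cell Titer-Glo, […].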

A53T a-syn = A53T a-syn protein level in HEK293 cells by immunoblot; format: cell-based, human
Method: Infected or transfected cells were scraped from six-well dishes and lysed with lysis buffer (50 mM Tris-HCl pH 7.4, 1% Nonidet P-40, 150 mM NaCl, 1 mM EDTA, 1× protease inhibitor mixture (Sigma)) for 30 min at 4 °C. The insoluble pellet was removed following a 10,000 rpm spin for 5 min at 4 °C. Lysates were analyzed by SDS-PAGE/immunoblot using 4–20% Mini-PROTEAN Tris-glycine gels (Bio-Rad), transferred to polyvinylidene fluoride (PVDF) membranes, and blocked in 5% milk containing PBS-Tween-20 (0.1%) for 1 h. PVDF membranes were then incubated with specified primary antibodies followed by incubation with horseradish peroxidase-conjugated secondary antibodies (anti-mouse HRP-linked, Cell Signaling, catalog #7076, 1:5000; anti-rabbit HRP-linked, Cell Signaling, catalog #7074, 1:5000) and detected using enhanced chemiluminescence (GE Healthcare). Anti-a-syn antibody (clone 42) was obtained from BD Biosciences (catalog #610787, 1:1000). Anti-LAMP1 antibody was obtained from Abcam (catalog #ab24170, 1:500). Anti-beta-actin antibody was obtained from Cell Signaling (13E5) (catalog #4970, 1:1000). Anti-CD63 antibody was obtained from R&D Systems (catalog #MAB50482-SP, 1:1000).

WT a-syn oligomers = test: Luciferase PCA of WT a-syn oligomers; format: cell-based, human; conditions: for Oligomers %: WT oligomers, luciferase activity; for Effect on WT a-syn oligomers: luciferase PCA
Method: (§1) Oligonucleotides encoding the specific peptides were synthesized and individually cloned into the pLJM1 nGFP lentiviral vector. HEK293T cells were infected with individual constructs, and cell viability was assessed using Cell Titer-Glo luminescent assay (Promega) at 72 h post infection.
(§2) Tet-off HEK293 cells stably expressing split luciferase-a-syn constructs and tet-off parent HEK293 cell lines were maintained in DMEM supplemented with 10% FBS and 1% pen/strep/glutamine. […] Cells were trypsinized from subconfluent culture and seeded in a 96-well plate at a density of 15,000 cells per well. Cells were incubated overnight at 37 °C in 5% CO2. Cells were transfected with GFP-peptide plasmids. After 6 h of incubation, 20 µL of cell medium was transferred to a black flat-bottomed 96-well plate. Fifty microliters of Working solution (Pierce Gaussia-Firefly Luciferase Dual Assay Kit, Thermo Scientific, 16181) were added into each well containing cell medium. Immediately after adding the reagent, samples were read using a luminometer with a 480 nm filter.

Parent HEK293 cells = test: Cell Titer-Glo cell viability, parent cells; format: cell-based, human; conditions: for Cell viability: MG132 10 μM, 72 h; for cell viability effect of peptides: Supp Figure 1A;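 for cell viability effect of peptides: measured without MG132 proteasome inhibitor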
Method: as §1
(§3) Cells were trypsinized from subconfluent cultures as described earlier, suspended in culture media, and then seeded into triplicate wells of a 96-well plate (100 µl/well) at a density of 1.5 × 10^4 cells per well with standard culture conditions of 5% CO2 at 37 °C. Cells were infected with lentivirus expressing peptide at a MOI of 5 for 72 h or transfected with plasmid for 72 h. Cell Titer-Glo reagent was added to each well (30 µL), according to the manufacturer’s protocol and […].

[2] = system: WT a-syn expressing HEK293 cells; test: Cell Titer-Glo cell viability, WT a-syn expressing cells; format: cell-based, human; conditions: WT alpha-synuclein; for Cell viability: MG132 10 μM, 72 h; for cell viability effect of peptides: Supp Figure 1A;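 for cell viability effect of peptides: measured without MG132 proteasome inhibitor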
Method: as §1, §3

Flag-CHMP2B = test: Co-immunoprecipitation of Flag-CHMP2B with GFP-peptides; format: cell-based; conditions: n = 3
Method: HEK293T cells were co-transfected with Flag-tagged target protein, HA-tagged source protein, and GFP-tagged peptide or GFP. Cells were lysed 48 h after transfections with radioimmune precipitation assay buffer (50 mM Tris-HCl pH 7.4, 1% Nonidet P-40, 150 mM NaCl, 1 mM EDTA, 10 mM Na3VO4, 10 mM sodium pyrophosphate, 25 mM NaF, 1× protease inhibitor mixture (Sigma)) for 30 min at 4 °C and co-immunoprecipitated with Flag beads (Clontech). The resulting immunocomplexes were analyzed by immunoblot using the appropriate antibodies. Protein samples were separated using 4–20% Mini-PROTEAN Tris-glycine gels (Bio-Rad) transferred to PVDF membranes and blocked in 5% milk containing PBS-Tween-20 (0.1%) for 1 h. PVDF membranes were then incubated with specified primary antibodies followed by incubation with horseradish peroxidase-conjugated secondary antibodies (anti-mouse HRP-linked, Cell Signaling, catalog #7076, 1:5000; anti-rabbit HRP-linked, Cell Signaling, catalog #7074, 1:5000) and detected using enhanced chemiluminescence (GE Healthcare). HA antibodies were obtained from Santa Cruz (catalog #7392, 1:2000), GFP antibodies were purchased from Abcam (catalog #ab290, 1:2000), and Flag antibodies were purchased from Sigma (catalog #A8592, 1:1000).

A53T a-syn oligomers = test: Luciferase PCA of A53T a-syn oligomers; format: cell-based, human; conditions: for Effect on A53T a-syn oligomers: luciferase PCA, n=3
Method: as §1, §2

| Substance | cell viability effect of peptides ([1]; replicate 1) | cell viability effect of peptides ([1]; replicate 2) | cell viability effect of peptides ([1]; replicate 3) | Cell viability ([1]; replicate 1) | Cell viability ([1]; replicate 2) | Cell viability ([1]; replicate 3) | Effect of MIM motif peptides on cell viability in A53T a-syn expressing cells ([1]; replicate 1) | Effect of MIM motif peptides on cell viability in A53T a-syn expressing cells ([1]; replicate 2) | Effect of MIM motif peptides on cell viability in A53T a-syn expressing cells ([1]; replicate 3) | Effect on A53T a-syn protein level (A53T a-syn) | Oligomers % (WT a-syn oligomers; column 1) | Oligomers % (WT a-syn oligomers; column 2) | Oligomers % (WT a-syn oligomers; column 3) | Oligomers % (WT a-syn oligomers; column 4) | Oligomers % (WT a-syn oligomers; column 5) | Effect on WT a-syn oligomers (WT a-syn oligomers) | Cell viability (Parent HEK293 cells; replicate 1) | Cell viability (Parent HEK293 cells; replicate 2) | Cell viability (Parent HEK293 cells; replicate 3) | cell viability effect of peptides (Parent HEK293 cells; replicate 1) | other results |
| --- | --- | --- | --- | --- | --- | --- | --- | --- | --- | --- | --- | --- | --- | --- | --- | --- | --- | --- | --- | --- | --- |
| IPIQLKA [PDpep1, initial screen hit peptide IPIQLKA] | 12800 | 14040 | 13200 | 5500 | 5200 | 5000 | 5748 | 5350 | 5562 | reduction in a-syn | 91.6523% | 79.1738% | 70.9983% | 79.1738% | 65.4045% | significant reduction in a-syn oligomers | 3800 | 3900 | 4100 | 12300 | cell viability effect of peptides (Parent HEK293 cells; replicate 2): 12100; cell viability effect of peptides (Parent HEK293 cells; replicate 3): 12500; Cell viability ([2]; replicate 1): 3500; Cell viability ([2]; replicate 2): 3600; Cell viability ([2]; replicate 3): 3700; cell viability effect of peptides ([2]; replicate 1): 12400; cell viability effect of peptides ([2]; replicate 2): 12300; cell viability effect of peptides ([2]; replicate 3): 12500; Interaction with CHMP2B (Flag-CHMP2B): interacted with Flag-CHMP2B; Effect on A53T a-syn oligomers (A53T a-syn oligomers): significant reduction in A53T a-syn oligomers; A53T a-syn oligomers as measured by luciferase activity (A53T a-syn oligomers; replicate 1): 221224; A53T a-syn oligomers as measured by luciferase activity (A53T a-syn oligomers; replicate 2): 258154; A53T a-syn oligomers as measured by luciferase activity (A53T a-syn oligomers; replicate 3): 261396 |
| DEEIERQLKALG [PDpep1.3] | 15000 | 15800 | 15200 | 8500 | 9100 | 9000 | 8764 | 8800 | 8162 | reduction in a-syn | 99.8279% | 83.0465% | 73.1497% | 78.3132% | 63.6833% | significant reduction in a-syn oligomers | 4900 | 4200 | 4500 | 13700 | Effect on cell survival/viability ([1]; A53T a-syn cells): most prominent effects on cell survival; cell viability effect of peptides (Parent HEK293 cells; replicate 2): 13400; cell viability effect of peptides (Parent HEK293 cells; replicate 3): 13100; Cell viability ([2]; replicate 1): 5800; Cell viability ([2]; replicate 2): 5300; Cell viability ([2]; replicate 3): 6000; cell viability effect of peptides ([2]; replicate 1): 14300; cell viability effect of peptides ([2]; replicate 2): 13800; cell viability effect of peptides ([2]; replicate 3): 14100; Interaction with CHMP2B (Flag-CHMP2B): interacted with Flag-CHMP2B; Effect on A53T a-syn oligomers (A53T a-syn oligomers): significant reduction in A53T a-syn oligomers; A53T a-syn oligomers as measured by luciferase activity (A53T a-syn oligomers; replicate 1): 222198; A53T a-syn oligomers as measured by luciferase activity (A53T a-syn oligomers; replicate 2): 195592; A53T a-syn oligomers as measured by luciferase activity (A53T a-syn oligomers; replicate 3): 221562 |

From publication PMC10115881, “Disrupting the α-synuclein-ESCRT interaction with a peptide inhibitor mitigates neurodegeneration in preclinical models of Parkinson’s disease” (Nature Communications, 2023)
